Marks after values point to notes of the source that are not given here.
Columns and labels:
[1] = cited from earlier work
in vivo = settings: male, beagle, dog, blood, po, 75 mg
Protocol: (§1) The study was a randomized, balanced, single dose, parallel group study in Beagle dogs comparing pharmacokinetics in fasted state of capsules containing C11-paclitaxel and DHA-paclitaxel, respectively in SEDDS formulation S2 (see Table 1).
(§2) The strength of each capsule was 12.5 mg of paclitaxel equivalents for the C-11 paclitaxel capsule and 10 mg of paclitaxel equivalents for the DHA-paclitaxel. The total oral dosage provided was 75 mg calculated as parent compound for paclitaxel and C11-paclitaxel, respectively and 60 mg calculated as parent compound for DHA-paclitaxel.
(§3) The dogs were deprived of food from late afternoon the day prior dosing. The capsule was put directly on the aditus laryngis of the dog to ensure that the capsule is not chewed but swallowed whole. All dogs received totally 100 ml of water immediately following the dosing.
(§4) Blood samples (approximately ˜0.5 mL) were taken from each animal at each dosing occasion on 10 time points up to 24 hours after dosing including a pre-dose.
(§5) The pharmacokinetic parameters calculated are i.e. total exposure, or area under the concentration-time curve (AUC0-inf, AUC0-t), peak exposure (Cmax), time to peak exposure (Tmax), terminal half-life t1/2 and the conversion rate from prodrug to parent.

[2] = oral 60 mg paclitaxel equivalents/animal, fasted male beagle dogs (N = 4)
Protocol: as §1, §2, §3, §4, §5

[3] = excessive first pass metabolism; cited from earlier work

CCCCCCCCCCC(=O)O[C@H]1CC[C@H]2[C@@H]3CCC4=CC(=O)CC[C@]4(C)[C@H]3CC[C@]12C [Testosterone undecanoate]
log P [1]: about 8.7

CC(=O)O[C@H]1C(=O)[C@@]2(C)[C@H]([C@H](OC(=O)c3ccccc3)[C@]3(O)C[C@H](OC(=O)[C@H](O)[C@@H](NC(=O)c4ccccc4)c4ccccc4)C(C)=C1C3(C)C)[C@]1(OC(C)=O)CO[C@@H]1C[C@@H]2O [Paclitaxel]
AUC(0-inf) (in vivo): 973 ng·h/mL | AUC(0-t) (in vivo): 771 ng·h/mL | Cmax (in vivo): 148 ng/mL | Tmax (in vivo): 2.5 h | half-life (in vivo): 822 min

C[C@@H](O)[C@@H]1NC(=O)[C@H](CCCCN)NC(=O)[C@@H](Cc2c[nH]c3ccccc23)NC(=O)[C@H](Cc2ccccc2)NC(=O)[C@@H](NC(=O)[C@H](N)Cc2ccccc2)CSSC[C@@H](C(=O)N[C@H](CO)[C@@H](C)O)NC1=O [Octreotide]
log P [1]: around 1

CC/C=C\C/C=C\C/C=C\C/C=C\C/C=C\C/C=C\CCC(=O)O[C@@H](C(=O)O[C@H]1C[C@@]2(O)[C@@H](OC(=O)c3ccccc3)[C@@H]3[C@]4(OC(C)=O)CO[C@@H]4C[C@H](O)[C@@]3(C)C(=O)[C@H](OC(C)=O)C(=C1C)C2(C)C)[C@@H](NC(=O)c1ccccc1)c1ccccc1 [Paclitaxel-DHA, paclitaxel docosahexaenoate]
AUC0-t(parent)/AUC0-t(prodrug) ([2]; conversion prodrug to parent): 22.3% | AUC0-t of paclitaxel (parent) [2]: 73.3 ng·h/mL | AUC0-t of prodrug [2]: 402^e) hr * ng/mL | AUC0-∞ of paclitaxel (parent) [2]: 97.2 ng·h/mL | AUC0-∞ of prodrug [2]: 643^f) hr * ng/mL | Cmax of paclitaxel (parent) [2]: 10.4 ng/mL | Cmax of prodrug [2]: 63.8^d) ng/mL | Tmax of paclitaxel (parent) [2]: 2.25 h | Tmax of prodrug [2]: 4.50 h | t1/2 of paclitaxel (parent) [2]: 11.6 h | t1/2 of prodrug [2]: 6.33 h

CC(=O)O[C@H]1CC[C@@]2(C)C(=CC[C@@H]3[C@@H]2CC[C@]2(C)C(c4cccnc4)=CC[C@@H]32)C1 [Abiraterone acetate]
log P [1]: 5.1

CC(C)c1cccc(C(C)C)c1O [propofol, 2,6-diisopropylphenol]
oral bioavailability [3]: ≤ 3%

From US11197828B2, “Solid oral dosage form of lipophilic compounds” (SOLURAL PHARMA APS, priority 2014, dated 2021)
